Results: patent US12661338B2, “Heterocyclic compounds as modulators of beta-catenin / TCF4 interaction” (AGENCY FOR SCIENCE, TECHNOLOGY AND RESEARCH, priority 2019, dated 2026)

Experiments:
[1] = tested on: Myc reporter (Luc)-HCT116 cells; experiment: Myc signalling reporter dose response; format: cell-based; conditions: Homo sapiens, HCT-116, 24 hr
Method: The Myc reporter (Luc)-HCT116 cells were seeded as 25,000 cells in 100 μL assay medium per well in 96-well plates (Corning cat. #3903, Falcon cat. #353072). The assay medium consists of the growth medium without G-418. The next day, 4-fold dilutions of the compounds in DMSO were added to the cells at a final concentration of 1% DMSO. After 24 hr incubation, the viability of the cells was determined with PrestoBlue cell viability reagent while the luciferase reporter activity was determined with Steady-Glo luciferase reagent.
(§1) The average signal from DMSO treated wells was calculated for each plate, and the signal from each treatment well was normalized against the average DMSO signal from the respective plate. The normalized values were plotted against the concentrations tested using GraphPad Prism 5, and the EC50 values were determined through either three- or four-parameter nonlinear regression.

[2] = biological target: T1, β-cat / GST-TCF4 N-terminal domain interaction (Homo sapiens, UniProt P35222); experiment: SPR inhibition of β-cat-TCF4 interaction; format: binding; conditions: SPR competition, 50 nM β-cat pre-incubated 15 min, n=2; read-out: IC50 inhibition of interaction between β-cat and TCF4
T1 construct: His-tagged human β-cat (134-668); made in house; host or cells: E. coli BL21(DE3)
Method: BL21(DE3) cells harboring pET-28 β-cat expression vector of His-tagged human β-cat (134-668) were cultured at 37° C. until OD600=0.6-0.8. The cells were then induced with 500 μM isopropyl-β-D-thiogalactopyranoside (IPTG) for 6-8 hr at 23° C. Cells were lysed by sonication in lysis buffer containing 20 mM Tris (pH 8.8), 250 mM NaCl, 2 mM DTT, 5% glycerol, 0.1% Triton X-100, and cOmplete protease inhibitor cocktail (EDTA free, Roche cat. #11873580001). The lysate was incubated with Ni-NTA agarose beads (Qiagen cat. #30210) at 4° C. for 1 hr, and the beads were then washed with lysis buffer containing 20 mM imidazole. Bound protein was eluted with buffer containing 20 mM Tris (pH 8.8), 250 mM NaCl, 0.5 mM tris(2-carboxyethyl)phosphine (TCEP), 5% glycerol, and 250 mM imidazole.
GST-tagged TCF4 N-terminal domain was expressed similarly in BL21(DE3) cells, induced for 2-4 hr at 23° C. with IPTG, and purified from glutathione agarose beads (Pierce cat. #16100) using buffer containing 20 mM Tris (pH 8.8), 250 mM NaCl, 0.5 mM TCEP, 5% glycerol, and 10 mM reduced glutathione.
GST-tag TCF4 N-terminal domain (31 kDa, >90% pure based on SDS-PAGE) was immobilized on a CM5 series S sensor chip using amine-coupling chemistry. […]

CRC1414 = experiment: Viability of primary patient-derived colorectal cancer cell line; format: cell-based
STF3A cells = experiment: Viability (toxicity) of STF3A reporter cells, CCK-8; format: cell-based; conditions: Table 3; STF3A reporter cell line
Method: (§2) The Wnt STF3A reporter cells were seeded as 20,000 cells in 100 μL culture medium per well in 96-well plates (Corning cat. #3903, Falcon cat. #353072). The next day, 5-fold dilutions of the compounds in DMSO were added to the cells at a final concentration of 1% DMSO. After 24 hr incubation, the viability of the cells was determined with cell counting kit-8 (CCK-8, Dojindo cat. #CK04) cell viability reagent according to the manufacturer's protocol while the TOPFlash reporter activity was determined with Steady-Glo luciferase reagent.
as §1

STF cells = experiment: Viability (toxicity) of STF reporter cells, CCK-8; format: cell-based; conditions: Table 3; STF reporter cell line
Method: as §2, with “STF” for “STF3A”, “DMSO. The cells were also stimulated with 500 ng/mL recombinant human Wnt3A (RnD systems, cat. #5036-WN-010).” for “DMSO.”
as §1

HCT116 xenografts = experiment: Mouse xenograft and compound treatment; format: in vivo; conditions: NSG mice, 50 mg/kg every other day i.p.
Method: HCT 116 cells (1×10^6 cells per site) and were implanted subcutaneously into the right flanks of 5-7 weeks old NSG (NOD scid gamma) (Jackson Laboratory, stock no. 005557) mice. When tumours reached a size of 60-100 mm^3 in volume, the animals were randomised to either the treatment or control group. Mice in the treatment group were administered with compound GB1874 at 50 mg/kg every other day via intraperitoneal injection. Simultaneously animals in the control group were administered with the diluent in the absence of compound. Compound GB1874 was prepared by dissolving it in DMSO to a concentration of 60 mg/mL and diluting it in 5% PEG 300, 5% Tween-80 in saline to a final concentration of 3 mg/mL, 5% DMSO. The length and width of tumours were measured by caliper once every 2 days. Tumour volumes were estimated using the following modified ellipsoidal formula: Tumour volume=½(length×width^2). Mice were euthanized when tumours in the control group reaches 2000 mm^3.

CRC1258 = experiment: Viability of primary patient-derived colorectal cancer cell line; format: cell-based; conditions: CRC1258, Liver Met
HCT116 cells = experiment: Spheroid formation assay; format: cell-based; conditions: HCT116, 30 μM
Method: HCT116, DLD-1, and SW480 cells were seeded as 150 cells in 200 μL spheroid medium per well in 96-well ultra-low attachment plates (Corning cat. #3474). The compounds were added on the day of cell seeding at a final concentration of 30 μM, 0.5% DMSO. The cells were grown at 37° C., 5% CO2 and images of the spheroids formed were taken on days 7 and 10 after cell seeding using the Operetta CLS system (Perkin Elmer).

T1 sequence (P35222 134-668): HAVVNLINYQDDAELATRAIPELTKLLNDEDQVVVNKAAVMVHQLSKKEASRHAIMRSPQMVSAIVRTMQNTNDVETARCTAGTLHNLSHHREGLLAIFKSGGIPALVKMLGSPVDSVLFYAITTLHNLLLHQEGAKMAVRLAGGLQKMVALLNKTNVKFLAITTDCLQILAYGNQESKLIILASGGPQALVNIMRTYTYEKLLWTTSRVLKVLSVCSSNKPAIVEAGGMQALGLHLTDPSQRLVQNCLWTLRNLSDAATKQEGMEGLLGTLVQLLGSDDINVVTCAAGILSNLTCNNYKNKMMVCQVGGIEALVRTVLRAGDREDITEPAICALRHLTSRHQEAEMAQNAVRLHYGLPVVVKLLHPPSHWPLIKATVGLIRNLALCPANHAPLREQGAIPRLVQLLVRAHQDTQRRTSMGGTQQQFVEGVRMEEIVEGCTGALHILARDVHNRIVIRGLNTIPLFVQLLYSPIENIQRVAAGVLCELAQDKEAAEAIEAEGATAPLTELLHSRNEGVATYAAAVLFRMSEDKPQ

## CCc1ccc(OCc2nnc(SC3CCCC3=O)n2C(C)c2ccccc2)cc1 (stereo not shown) [GB1874]
[1]
  IC50: 32 µM
[2]
  IC50: 25 ± 8 µM
CRC1414
  EC50: 42 µM
STF3A cells
  IC50: 64 µM
STF cells
  IC50: 66 µM
HCT116 xenografts
  expression of cyclin D1 and Ki67 in xenograft tumours (IHC): reduction in the expression of Wnt target gene, cyclin D1, as well as the proliferation marker, Ki67
HCT116 xenografts; 2 weeks
  systemic toxicity in the mice (body weight): minimal systemic toxicity
HCT116 xenografts; 2 weeks, 50 mg/kg
  growth of HCT116 xenografts (tumour volume): effectively inhibited the growth of HCT116 xenografts in vivo
CRC1258
  EC50: 27 µM
HCT116 cells
  spheroid formation: markedly reduce survival of the cancer stem-like cells
